Measurements reported in PubChem BioAssay AID200 (DTP/NCI, 2004).
Values joined by “and” are separate entries in the source; they are usually repeats but may differ in a detail not shown here. Equal entries are not always repeated. Toxic doses and inconclusive results are not listed. How the source made its calls: active means survival T/C of 150% or more; inactive means T/C below 125% in these data.

Tested on: B6C3F1 mice, B16 melanoma ip, median survival T/C
Experiment: NCI In Vivo Anticancer Drug Screen. Data for tumor model B16 Melanoma (intraperitoneal) in B6C3F1 mice
Details: endpoint: median survival time, higher = longer survival
In short: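 Tumor-bearing mice received test compound; a separate group got vehicle only. Survival was then compared, with results reported as treated over control.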

[1] = dose: 25.0 mg/kg/injection, schedule: Q01DX009 (ip), vehicle: saline with Tween-80
[2] = dose: 50.0 mg/kg/injection, schedule: Q01DX009 (ip), vehicle: saline with Tween-80
[3] = dose: 100.0 mg/kg/injection, schedule: Q01DX009 (ip), vehicle: saline with Tween-80
[4] = dose: 12.5 mg/kg/injection, schedule: Q01DX009 (ip), vehicle: saline
[5] = dose: 25.0 mg/kg/injection, schedule: Q01DX009 (ip), vehicle: saline
[6] = dose: 50.0 mg/kg/injection, schedule: Q01DX009 (ip), vehicle: saline
[7] = dose: 100.0 mg/kg/injection, schedule: Q01DX009 (ip), vehicle: saline
[8] = dose: 25.0 mg/kg/injection, schedule: Q01DX009 (ip), vehicle: Klucel (hydroxypropylcellulose) (HPC)
[9] = dose: 50.0 mg/kg/injection, schedule: Q01DX009 (ip), vehicle: Klucel (hydroxypropylcellulose) (HPC)
[10] = dose: 100.0 mg/kg/injection, schedule: Q01DX009 (ip), vehicle: Klucel (hydroxypropylcellulose) (HPC)
[11] = dose: 200.0 mg/kg/injection, schedule: Q01DX009 (ip), vehicle: Klucel (hydroxypropylcellulose) (HPC)
[12] = dose: 12.5 mg/kg/injection, schedule: Q01DX009 (ip), vehicle: saline with Tween-80

Measured: T/C

CC(=O)OCC1OC([S-])C(OC(C)=O)C(OC(C)=O)C1OC(C)=O.CC[PH+](CC)CC.CC[PH+](CC)CC.[Au].[Au] (configuration not stated)
inactive: dose: 0.62 mg/kg/injection, schedule: Q01DX009 (ip), vehicle: Klucel (hydroxypropylcellulose) (HPC) 110 % of control and 105 % of control | dose: 1.25 mg/kg/injection, schedule: Q01DX009 (ip), vehicle: Klucel (hydroxypropylcellulose) (HPC) 109 % of control | dose: 2.5 mg/kg/injection, schedule: Q01DX009 (ip), vehicle: Klucel (hydroxypropylcellulose) (HPC) 98 % of control and 103 % of control | dose: 5.0 mg/kg/injection, schedule: Q01DX009 (ip), vehicle: Klucel (hydroxypropylcellulose) (HPC) 114 % of control and 97 % of control | dose: 10.0 mg/kg/injection, schedule: Q01DX009 (ip), vehicle: Klucel (hydroxypropylcellulose) (HPC) 92 % of control

COc1ccc(C(C)c2cc3c(cc2OC)OCO3)cc1 (configuration not stated)
inactive: [1] 99 % of control | [2] 99 % of control | [3] 100 % of control | dose: 200.0 mg/kg/injection, schedule: Q01DX009 (ip), vehicle: saline with Tween-80 104 % of control

C[N+](C)(C)c1ncnc2nc[nH]c12
inactive: [4] 98 % of control | [5] 100 % of control | [6] 114 % of control and 88 % of control | [7] 93 % of control and 103 % of control | dose: 200.0 mg/kg/injection, schedule: Q01DX009 (ip), vehicle: saline 93 % of control

Oc1c(Cl)cc(C(c2cc(Cl)c(O)c(Cl)c2)C(c2cc(Cl)c(O)c(Cl)c2)c2cc(Cl)c(O)c(Cl)c2)cc1Cl
inactive: dose: 12.5 mg/kg/injection, schedule: Q01DX009 (ip), vehicle: Klucel (hydroxypropylcellulose) (HPC) 88 % of control and 100 % of control | [8] 92 % of control and 99 % of control | [9] 93 % of control and 101 % of control | [10] 93 % of control and 101 % of control | [11] 104 % of control

NC(=O)c1ccc[n+](Cc2c(Cl)cccc2Cl)c1
inactive: dose: 1.5 mg/kg/injection, schedule: Q01DX009 (ip), vehicle: saline 98 % of control | dose: 3.0 mg/kg/injection, schedule: Q01DX009 (ip), vehicle: saline 98 % of control | dose: 6.0 mg/kg/injection, schedule: Q01DX009 (ip), vehicle: saline 103 % of control | dose: 12.0 mg/kg/injection, schedule: Q01DX009 (ip), vehicle: saline 98 % of control

O=C1N=C(Oc2ccccc2)SC1=O
inactive: [12] 110 % of control | [1] 98 % of control | [2] 103 % of control | [3] 92 % of control

CC(Br)C(=O)NC(Cc1ccccc1)C(=O)O (configuration not stated)
inactive: [4] 104 % of control | [5] 95 % of control | [6] 102 % of control

CC(C)(C)OC(=O)NCCCCC(NC(=O)OCC1c2ccccc2-c2ccccc21)C(=O)O (configuration not stated)
inactive: [8] 100 % of control | [9] 95 % of control

C[n+]1c(/C=C\C=C\N2CCCCC2)sc2ccccc21
inactive: dose: 0.12 mg/kg/injection, schedule: Q01DX009 (ip), vehicle: Klucel (hydroxypropylcellulose) (HPC) 107 % of control | dose: 0.25 mg/kg/injection, schedule: Q01DX009 (ip), vehicle: Klucel (hydroxypropylcellulose) (HPC) 95 % of control | dose: 0.5 mg/kg/injection, schedule: Q01DX009 (ip), vehicle: Klucel (hydroxypropylcellulose) (HPC) 90 % of control | dose: 1.0 mg/kg/injection, schedule: Q01DX009 (ip), vehicle: Klucel (hydroxypropylcellulose) (HPC) 95 % of control | dose: 2.0 mg/kg/injection, schedule: Q01DX009 (ip), vehicle: Klucel (hydroxypropylcellulose) (HPC) 110 % of control

CC(C)(C)OC(=O)NC(CCCCNC(=O)OCc1ccccc1)C(=O)O (configuration not stated)
inactive: dose: 25.0 mg/kg/injection, schedule: Q01DX009 (ip), vehicle: distilled water + Tween-80 + alcohol 111 % of control | dose: 50.0 mg/kg/injection, schedule: Q01DX009 (ip), vehicle: distilled water + Tween-80 + alcohol 96 % of control

COc1cc2cc3cc4cc(OC)c(OC)cc4c(C)[n+]3cc2cc1OC (tested in a mixture with another compound)
inactive: [4] 106 % of control | [5] 100 % of control | [6] 100 % of control | [7] 90 % of control

CCC(NC(N)=O)C(CC)NC(N)=O (configuration not stated)
inactive: [12] 99 % of control | [1] 96 % of control | [2] 89 % of control

NCc1ccc(O)c(O)c1
inactive: dose: 28.13 mg/kg/injection, schedule: Q03HX024 (ip), vehicle: saline 98 % of control | dose: 56.25 mg/kg/injection, schedule: Q03HX024 (ip), vehicle: saline 107 % of control | dose: 75.0 mg/kg/injection, schedule: Q01DX009 (ip), vehicle: saline 110 % of control | dose: 225.0 mg/kg/injection, schedule: Q03HX024 (ip), vehicle: saline 124 % of control | dose: 300.0 mg/kg/injection, schedule: Q01DX009 (ip), vehicle: saline 114 % of control and 117 % of control | dose: 400.0 mg/kg/injection, schedule: Q01DX009 (ip), vehicle: saline 117 % of control and 118 % of control | dose: 500.0 mg/kg/injection, schedule: Q01DX009 (ip), vehicle: saline 117 % of control and 91 % of control

CC1CCOS(=O)O1 (configuration not stated)
inactive: dose: 10.0 mg/kg/injection, schedule: Q01DX009 (ip), vehicle: saline 104 % of control | dose: 20.0 mg/kg/injection, schedule: Q01DX009 (ip), vehicle: saline 123 % of control | dose: 40.0 mg/kg/injection, schedule: Q01DX009 (ip), vehicle: saline 110 % of control

Cc1c(CNc2ccc(C(=O)NC(CC(=O)O)C(=O)O)cc2)ccc2nc(N)nc(N)c12 (configuration not stated)
inactive: dose: 0.18 mg/kg/injection, schedule: Q01DX009 (ip), vehicle: saline with Tween-80 90 % of control

C/C(=N\NC(=S)N1CC2CCC(CC2)C1)c1nccs1
inactive: dose: 6.25 mg/kg/injection, schedule: Q01DX009 (ip), vehicle: saline with Tween-80 100 % of control | [12] 107 % of control | [1] 105 % of control

CC(C)(C)OC(=O)NC(Cc1cnc[nH]1)C(=O)O (configuration not stated)
inactive: [10] 97 % of control | [11] 94 % of control | dose: 400.0 mg/kg/injection, schedule: Q01DX009 (ip), vehicle: Klucel (hydroxypropylcellulose) (HPC) 106 % of control

CC(=O)OCC1C(=O)OCC1C(=O)N1Cc2cc3ccccc3nc2C1 (configuration not stated)
inactive: dose: 8.0 mg/kg/injection, schedule: Q01DX009 (ip), vehicle: saline with Tween-80 115 % of control | dose: 16.0 mg/kg/injection, schedule: Q01DX009 (ip), vehicle: saline with Tween-80 95 % of control | dose: 32.0 mg/kg/injection, schedule: Q01DX009 (ip), vehicle: saline with Tween-80 100 % of control | dose: 64.0 mg/kg/injection, schedule: Q01DX009 (ip), vehicle: saline with Tween-80 91 % of control | dose: 128.0 mg/kg/injection, schedule: Q01DX009 (ip), vehicle: saline with Tween-80 88 % of control

NCCCCC(NC(=O)OCC1c2ccccc2-c2ccccc21)C(=O)O (configuration not stated)
inactive: [8] 92 % of control | [9] 101 % of control | [10] 97 % of control and 100 % of control

CCOC(=O)c1ccc(NC(=O)Nc2nncs2)cc1
inactive: dose: 6.25 mg/kg/injection, schedule: Q01DX009 (ip), vehicle: distilled water + Tween-80 100 % of control | dose: 12.5 mg/kg/injection, schedule: Q01DX009 (ip), vehicle: distilled water + Tween-80 110 % of control | dose: 25.0 mg/kg/injection, schedule: Q01DX009 (ip), vehicle: distilled water + Tween-80 115 % of control | dose: 50.0 mg/kg/injection, schedule: Q01DX009 (ip), vehicle: distilled water + Tween-80 121 % of control | dose: 100.0 mg/kg/injection, schedule: Q01DX009 (ip), vehicle: distilled water + Tween-80 121 % of control | dose: 200.0 mg/kg/injection, schedule: Q01DX009 (ip), vehicle: distilled water + Tween-80 105 % of control
